The target of test [1] is T1, Peroxisome proliferator-activated receptor gamma (Homo sapiens) (UniProt P37231).
T1 sequence (whole entry): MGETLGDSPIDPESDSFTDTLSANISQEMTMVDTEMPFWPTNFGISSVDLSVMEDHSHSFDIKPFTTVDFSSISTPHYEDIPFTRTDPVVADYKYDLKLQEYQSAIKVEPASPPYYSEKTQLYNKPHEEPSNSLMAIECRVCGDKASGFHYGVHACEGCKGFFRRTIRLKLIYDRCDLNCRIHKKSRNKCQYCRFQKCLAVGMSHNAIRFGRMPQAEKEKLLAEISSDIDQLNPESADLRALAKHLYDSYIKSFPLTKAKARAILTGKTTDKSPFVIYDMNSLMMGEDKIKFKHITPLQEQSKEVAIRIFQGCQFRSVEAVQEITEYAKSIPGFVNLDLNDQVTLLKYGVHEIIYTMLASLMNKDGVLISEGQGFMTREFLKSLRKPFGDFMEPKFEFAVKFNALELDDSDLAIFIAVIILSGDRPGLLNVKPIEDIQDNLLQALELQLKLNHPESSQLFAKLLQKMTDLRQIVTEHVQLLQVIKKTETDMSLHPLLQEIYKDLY
Nature of the test: Binding affinity for peroxisome proliferator-activated receptor gamma: active.

In test [2] the target is T1, Peroxisome proliferator-activated receptor gamma (Homo sapiens). Nature of the test: Binding affinity for peroxisome proliferator-activated receptor gamma: weak activity.
For test [3] the target is unchanged. Nature of the test: Binding affinity for peroxisome proliferator-activated receptor gamma: more active.

In ChEMBL document CHEMBL1142029, “Design, synthesis, and biological activity of novel PPARgamma ligands based on rosiglitazone and 15d-PGJ2” (Bioorg Med Chem Lett, 2005) one finds Activity data, which are given here for 12 compounds.

Active and inactive are the calls of the source. The calls are words filed in the database; no cut-off is given here.

On to `CCCN(CCOc1ccc(CCC(=O)O)cc1)c1ccccn1`, for which the result in test [1] was Active. As to `O=C(O)CCc1ccc(OCCn2c3ccccc3c3ccncc32)cc1`, the Activity result in test [2] was “Weak activity”. As for `CCCCCN(CCOc1ccc(CCC(=O)O)cc1)c1ccccn1`, in test [1], the result was Active. As for `CCCCCCCN(CCOc1ccc(CCC(=O)O)cc1)c1ccccn1`, the result in test [3] was Active. Take `O=C(O)CCc1ccc(OCCN(c2ccccn2)c2ccccn2)cc1`: the Activity result in test [2] was “Weak activity”. Still for that read-out and setting: under `O=C(O)CCc1ccc(OCCN(c2ccccc2)c2ccccn2)cc1` stands “Weak activity”. For the compound `CCCCCCCCN(CCOc1ccc(CCC(=O)O)cc1)c1ccccn1`, the result in test [3] was Active. On to `CCN(CCOc1ccc(CCC(=O)O)cc1)c1ccccn1`, for which, in test [1], the outcome was Active. For `CN(CCOc1ccc(CCC(=O)O)cc1)c1ccccn1`, in test [1], the result was Active. On the same count and under the same terms, under `CCCCN(CCOc1ccc(CCC(=O)O)cc1)c1ccccn1` stands “Active”. On the same count and under the same terms, under `CCCCCCN(CCOc1ccc(CCC(=O)O)cc1)c1ccccn1` stands “Active”; under `CCCCCCCCCCN(CCOc1ccc(CCC(=O)O)cc1)c1ccccn1`, “Active”.
